Results on 16 compounds are retold here after publication PMC2649788 (Drug metabolism and disposition: the biological fate of …, 2008).

Residue numbers refer to the chain shown, from its start. “And” between values parts separate entries of the source, which are not always exact repeats. Equal entries are not always repeated. Some results are limits rather than exact numbers.

Data set [1] deals with K262R. Particulars: in contrast to CYP2B6dH, ref Bumpus et al., 2005, 2006; cited from earlier work.
Data set [2] addresses T1, CYP2B6dH (Homo sapiens, UniProt P20813).
T1 sequence (P20813 with tags, fused parts or gaps limits assumed): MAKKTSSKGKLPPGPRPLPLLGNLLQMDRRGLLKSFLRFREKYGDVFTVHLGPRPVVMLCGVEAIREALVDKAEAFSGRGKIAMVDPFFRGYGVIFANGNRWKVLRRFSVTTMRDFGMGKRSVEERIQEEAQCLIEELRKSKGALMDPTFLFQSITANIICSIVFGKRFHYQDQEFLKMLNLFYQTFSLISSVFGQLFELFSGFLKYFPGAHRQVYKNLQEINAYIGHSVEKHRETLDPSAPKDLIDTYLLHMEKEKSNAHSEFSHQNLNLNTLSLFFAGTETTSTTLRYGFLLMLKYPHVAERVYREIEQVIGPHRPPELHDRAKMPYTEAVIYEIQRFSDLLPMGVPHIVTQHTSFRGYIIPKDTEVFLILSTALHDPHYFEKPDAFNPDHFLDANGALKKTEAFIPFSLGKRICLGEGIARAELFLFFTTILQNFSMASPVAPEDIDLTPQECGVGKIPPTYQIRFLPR
Particulars: ref Bumpus et al., 2006, cited from earlier work.

Data set [3] deals with K262R. Particulars: ref Bumpus et al., 2006, cited from earlier work.
The test system of data set [4] is *1/*4 heterozygotes. Particulars: ref Rotger et al., 2007; cited from earlier work.
Data set [5] concerns 2B6*1/*4 genotype. Particulars: individuals with 2B6*1/*4 genotype, single dose; ref Kirchheiner at al., 2003; cited from earlier work.
The test system of data set [6] is K262R. Particulars: bupropion to hydroxybupropion; ref Bumpus et al., 2005; cited from earlier work.
Data set [7] concerns K262R. Details: species or system human.
The target of data set [8] is T1, CYP2B6dH. Particulars: for Predicted inhibition of efavirenz metabolism (CYP2B6dH): in vivo prediction; for Predicted in vivo % activity (CYP2B6dH): remaining efavirenz metabolism relative to no inhibitor.
For data set [9] the following is noted: read-out: Estimated in vivo Cmax; plasma, normal population; used as [I]; ref www.mentalhealth.com, www.medscape.com, www.pharmgkb.org, Burgess and Bodey, 1972, Goodwin and Drew, 2007; cited from earlier work.
The target in data set [10] is T1, CYP2B6dH. The data set can be described thus: Spectral binding. Particulars: for Type of difference spectrum induced: CYP2B6dH and K262R, peak ~388 nm, trough ~420 nm; for ΔAmax (CYP2B6dH): difference spectra, 1 μM P450.
For data set [11], the target named is T2, K262R (2B6*4) (Homo sapiens, UniProt P20813, K262R).
T2 sequence (P20813 with tags, fused parts or gaps K262R limits assumed): T1 sequence (P20813 with tags, fused parts or gaps limits assumed) with K243R
The data set can be described thus: Spectral binding. Particulars: for ΔAmax (K262R): difference spectra, 1 μM P450; for Higher Ks, K262R compared with CYP2B6dH / ΔAmax, K262R compared with wild-type: spectral binding.

In data set [12] the target is T2, K262R (2B6*4). The data set can be described thus: 7-MFC O-deethylation inhibition in standard reconstitution system. Particulars: for Increase in Ki, K262R compared with CYP2B6dH: 7-MFC O-deethylation.
The target of data set [13] is T3, Q172H/K262R (2B6*6) (Homo sapiens, UniProt P20813, K262R/Q172H).
T3 sequence (P20813 with tags, fused parts or gaps Q172H/K262R limits assumed): T1 sequence (P20813 with tags, fused parts or gaps limits assumed) with Q153H, K243R
The data set is described as above. Particulars: for Increase in Ki, Q172H/K262R compared with CYP2B6dH: 7-MFC O-deethylation; for Ki: Ki (Q172H/K262R), 7-MFC 25, 50, 100, 150 μM, global fit, duplicate.

Data set [14] deals with T1, CYP2B6dH.
For data set [15], the target named is T3, Q172H/K262R (2B6*6).
For data set [16], the target named is T1, CYP2B6dH. The data set can be described thus: 7-MFC O-deethylation inhibition in standard reconstitution system. Particulars: pH 7.4.
Data set [17] deals with T4, CYP2B6 K262R (2B6*4) (Homo sapiens, UniProt P20813, K262R).
T4 sequence (P20813 with tags, fused parts or gaps K262R limits assumed): T1 sequence (P20813 with tags, fused parts or gaps limits assumed) with K243R
The description is as above. Particulars: human, pH 7.4.

The target of data set [18] is T5, CYP2B6 Q172H/K262R (2B6*6) (Homo sapiens, UniProt P20813, K262R/Q172H).
T5 sequence (P20813 with tags, fused parts or gaps Q172H/K262R limits assumed): T1 sequence (P20813 with tags, fused parts or gaps limits assumed) with Q153H, K243R
The description is as above. Particulars: human, pH 7.4.

The subject of data set [19] is K262R. It is filed as biochemical, human. Particulars: type II inhibitors; Supporting table 1.

On to `C#C[C@]1(O)CC[C@H]2[C@@H]3CCc4cc(O)ccc4[C@H]3CC[C@@]21C` [17α-ethynylestradiol], for which the “Susceptibility of K262R to mechanism-based inactivation” value (“Susceptibility of K262R” for short) in [1] was “refractory”.

Broadly, the Km is the concentration of substrate that gives half-maximal velocity. As to `O=C1Nc2ccc(Cl)cc2[C@@](C#CC2CC2)(C(F)(F)F)O1` [efavirenz], the Km in data set [2] (read-out: Km for efavirenz hydroxylation (CYP2B6dH)) was 14.3 µM; in data set [3] (read-out: Km for efavirenz hydroxylation (K262R)), 15.9 µM. The “kcat for efavirenz hydroxylation (CYP2B6dH)” value in data set [2] is 0.0717 s⁻¹. In addition, the “Increased catalytic efficiency, K262R compared with CYP2B6dH” value in [3] (efavirenz to 8-hydroxyefavirenz) is ~ 2 fold. Besides, the “kcat for efavirenz hydroxylation (K262R)” value in data set [3] was 0.132 s⁻¹. In addition, the “Reduced area under plasma concentration (AUC)” value in data set [4] is reported as 17%. Also, the “Susceptibility of K262R” value in data set [1] is recorded as “refractory”.

Take `CC(NC(C)(C)C)C(=O)c1cccc(Cl)c1` (stereo not drawn) [bupropion]: the Increased clearance in data set [5] is 1.3 fold. Moreover, the “Increased kcat, K262R compared with CYP2B6dH” value in data set [6] is greater than 2 fold.

By Cmax is commonly meant the peak of the concentration-time curve. As a reminder, the Kd is the constant that tells how readily two partners part at equilibrium. On to `CCC(C)n1ncn(-c2ccc(N3CCN(c4ccc(OCC5COC(Cn6cncn6)(c6ccc(Cl)cc6Cl)O5)cc4)CC3)cc2)c1=O` (stereo not drawn) [Itraconazole, itraconazole], for which the “Predicted inhibition of efavirenz metabolism (K262R)” value in data set [7] (in vivo prediction) is given as 20%. Besides, the “Predicted inhibition of efavirenz metabolism (CYP2B6dH)” value in data set [8] is listed as 43%. Further, the Cmax in data set [9] was 1900 nM. Besides, in [10], the affinity, expressed as Kd, was 70 ± 130 nM; the “Type of difference spectrum induced” value was “type I”; the “ΔAmax (CYP2B6dH)” value is listed as 0.022 ± 0.003. For the same compound, in data set [11], the Kd was determined as 1730 ± 440 nM; the “ΔAmax (K262R)” value amounted to 0.021 ± 0.002; the “Higher Ks, K262R compared with CYP2B6dH” value was > 20 fold and ~20 fold; the “ΔAmax, K262R compared with wild-type” value is given as “similar”. For the same compound, the “Increase in Ki, K262R compared with CYP2B6dH” value (from here on “Increase in Ki, K262R”) in [12] is recorded as greater than 3 fold.

By Ki is commonly meant the equilibrium dissociation constant of an inhibitor or competing ligand from its target. As for `COC(=O)[C@H](c1ccccc1Cl)N1CCc2sccc2C1` [Clopidogrel, clopidogrel], in [7], the “Predicted in vivo activity (K262R)” value is 0.27 (7.6) min^−1. Further, in data set [9], the Cmax was 9300 nM. In [10], the Kd was 160 ± 110 nM, the “Type of difference spectrum induced” value is reported as “type I” and the “ΔAmax (CYP2B6dH)” value turned out to be 0.026 ± 0.002. Besides, in data set [11], the Kd was found to be 330 ± 140 nM; the “ΔAmax (K262R)” value came out at 0.030 ± 0.002; the “ΔAmax, K262R compared with wild-type” value is given as “similar”. Besides, the “Increase in Ki, K262R” value in data set [12] is recorded as 4 fold. Besides, the “Increase in Ki, K262R” value in [12] (listed as clopidogrel) was greater than 3 fold. In addition, the “Increase in Ki, Q172H/K262R compared with CYP2B6dH” value in data set [13] (listed as clopidogrel) was > 6 fold and 6 fold. Moreover, the Ki in data set [13] was 600 nM and 590 nM and 630 nM.

Consider `COc1ccc2c(C(F)(F)F)cc(=O)oc2c1` [7-MFC, 7-Methoxy-4-(trifluoromethyl) coumarin], for which, in data set [14], the “kcat for 7-MFC oxidation (CYP2B6dH)” value is 0.0633 s⁻¹. Moreover, the “Km higher, Q172H/K262R vs CYP2B6dH or K262R” value in data set [15] is reported as ~ 10 fold. For the same compound, the “kcat lower, Q172H/K262R vs CYP2B6dH or K262R” value in [15] was greater than 2 fold. The Km at 5 min in [16] amounted to 5.1 µM; in data set [17], 5 µM; in data set [18], 49 µM. Moreover, the “kcat for 7-MFC oxidation (K262R)” value in data set [12] was 0.0817 s⁻¹. Also, in data set [13], the “kcat for 7-MFC oxidation (Q172H/K262R)” value stood at 0.0217 s⁻¹.

For `O=[N+]([O-])c1ccc(Cc2ccncc2)cc1` [4-(4-nitrobenzyl)pyridine], in data set [19], the “Lower IC50, K262R compared with CYP2B6dH” value was ~ 2 fold and 2 fold.

As for `O=C(c1ccc(OCCN2CCCCC2)cc1)c1c(-c2ccc(O)cc2)sc2cc(O)ccc12` [Raloxifene, raloxifene], the “Predicted in vivo % activity (CYP2B6dH)” value in [8] is given as “would not alter”. The Cmax in [9] is 3 nM.

With `c1ccc(-c2ccncc2)cc1` [4-(phenyl)pyridine], the “Lower IC50, K262R compared with CYP2B6dH” value in [19] is reported as 10 fold.

On to `CN[C@H]1CC[C@@H](c2ccc(Cl)c(Cl)c2)c2ccccc21` [Sertraline, sertraline], for which the “Predicted inhibition of efavirenz metabolism (CYP2B6dH)” value in data set [8] is 52%. In addition, the Cmax in data set [9] is 620 nM. Further, in data set [10], the Kd was determined as 510 ± 160 nM, the “Type of difference spectrum induced” value is “type I” and the “ΔAmax (CYP2B6dH)” value stood at 0.008 ± 0.0005. In [11], the Kd came out at 2060 ± 610 nM; the “ΔAmax (K262R)” value was found to be 0.02 ± 0.002; the “Higher Ks, K262R compared with CYP2B6dH” value is listed as 4 fold; the “ΔAmax, K262R compared with wild-type” value was 3 fold. In addition, the “Increase in Ki, K262R” value in data set [12] is ~ 6 fold and 6 fold. Besides, in data set [13], the “Increase in Ki, Q172H/K262R compared with CYP2B6dH” value was > 6 fold and > 7 fold; the Ki is 2200 nM and 2160 nM.

In the case of `Clc1ccccc1CN1CCc2sccc2C1` [Ticlopidine, ticlopidine], the “Predicted in vivo activity (K262R)” value in data set [7] is on record as 0.47 (13) min^−1. In addition, the Cmax in [9] was 1600 nM. In data set [10], the “Type of difference spectrum induced” value is on record as “type I” and the “ΔAmax (CYP2B6dH)” value turned out to be 0.023 ± 0.001. Moreover, in data set [11], the “ΔAmax (K262R)” value is given as 0.025 ± 0.001; the “Higher Ks, K262R compared with CYP2B6dH” value is on record as “No significant changes”; the “ΔAmax, K262R compared with wild-type” value is “similar”. The “Increase in Ki, K262R” value in data set [12] is reported as “similar”.

In the case of `CC(C)=CCC/C(C)=C/COc1c2ccoc2cc2oc(=O)ccc12` [bergamottin], in data set [1], the “Susceptibility of K262R” value is reported as “preserved”.

For `S=P(N1CC1)(N1CC1)N1CC1` [N,N′,N″-triethylenethiophosphoramide], in data set [1], the “Susceptibility of K262R” value was “preserved”.

`c1ccc(-c2ccc(Cn3ccnc3)cc2)cc1` [1-(4-phenyl)benzylimidazole]: the “Lower IC50, K262R compared with CYP2B6dH” value in data set [19] is ~ 2 fold and 2 fold.

`Clc1ccccc1C(c1ccccc1)(c1ccccc1)n1ccnc1` [Clotrimazole, clotrimazole]: in [8], the “Predicted in vivo % activity (CYP2B6dH)” value is recorded as 6%. Also, in data set [9], the Cmax was 3700 nM. Moreover, the “Increase in Ki, K262R” value in data set [12] was “similar”.

As to `O=C1Nc2c(O)cc(Cl)cc2[C@@](C#CC2CC2)(C(F)(F)F)O1` [8-hydroxyefavirenz], the “Susceptibility of K262R” value in [1] is on record as “preserved”.
